Experiments:
[1] = MVP IVUS substudy after balloon angioplasty; assay type: in vivo, human
From the text: Serial intravascular ultrasound (IVUS) examinations have been performed in a consecutive series of patients involved in the MVP trial. By providing tomographic views of coronary arteries with high resolution, IVUS allows quantitative assessment of changes in arterial lumen and wall dimensions. We were therefore able in this study to determine the pathophysiology of coronary restenosis after balloon angioplasty in patients systematically undergoing follow-up IVUS examination and determine the effect of probucol on tissue hyperplasia and vascular remodeling after coronary angioplasty. The present invention concerns the IVUS substudy from the MVP restenosis trial. […] Briefly, patients referred for elective coronary angioplasty were evaluated at least 30 days prior to their scheduled procedure. […] The sequence of contrast injections with the exact degree of angulation was recorded and used for every angiogram. Coronary arteriograms (pre-, post-procedure, and final follow-up) were analyzed together using the Coronary Measurement System (CMS), as previously reported. […] Patients were readmitted for follow-up coronary angiography at five to seven months. […] IVUS imaging was monitored by an experienced cardiologist, but the angioplasty operator was blinded to ultrasound results to avoid altering standard balloon angioplasty practice. […]

LDL = LDL peroxidation lag phase ex vivo (diene conjugates after copper ions); design: species or system human; conditions: treatment for one month; preliminary results
From the text: Dietary intervention and smoking habits were similar in all groups. Probucol may simply be a more powerful antioxidant than the combination of vitamins. To this regard, preliminary results from the continuous spectrophotometric monitoring of diene conjugates in LDL after the addition of copper ions to the isolated lipoprotein ex vivo (Free Radic Res Commun 1989; 6:67-75) of MVP patients are noteworthy.

[2] = MVP randomized clinical trial, angiographic and clinical outcome; assay type: in vivo, human; conditions: probucol given alone, compared to placebo
From the text: It was not possible to determine with angiography alone whether probucol acted via inhibition of tissue hyperplasia or improvement in vascular remodeling. […] In addition, the invention enables the skilled practitioner to use probucol in conjunction with other percutaneous coronary interventions such as stenting if it is deemed appropriate.
The present invention concerns the IVUS substudy from the MVP restenosis trial. MVP was a double-blind placebo-controlled randomized clinical trial with four study groups. The protocol was approved by the Montreal Heart Institute institutional review board. The MVP study design, inclusion and exclusion criteria have been previously described (N Engl J Med 1997; 365-372). Briefly, patients referred for elective coronary angioplasty were evaluated at least 30 days prior to their scheduled procedure. Eligible patients were asked to provide written informed consent. Patients were eligible if they were scheduled to undergo standard balloon angioplasty on at least one native coronary artery and had at least one de novo target lesion with luminal narrowing of fifty percent or more by caliper measurements.
Beginning thirty days prior to scheduled angioplasty, patients were randomly assigned to receive either probucol alone, multivitamins alone, the combination of probucol and multivitamins, or placebo. Probucol 500 mg or matched placebo was administered twice daily. The multivitamin complex, consisting of vitamin E 700 IU, vitamin C 500 mg and beta-carotene 30,000 IU, or matched placebo was also administered in one tablet twice daily. […] The sequence of contrast injections with the exact degree of angulation was recorded and used for every angiogram. Coronary arteriograms (pre-, post-procedure, and final follow-up) were analyzed together using the Coronary Measurement System (CMS), as previously reported. […] Patients were readmitted for follow-up coronary angiography at five to seven months. […]

## CC(C)(Sc1cc(C(C)(C)C)c(O)c(C(C)(C)C)c1)Sc1cc(C(C)(C)C)c(O)c(C(C)(C)C)c1 [probucol, 4,4′-([1-methylethylidene)bis(thio)]bis-[2,6-bis(1,1-dimethylethyl)phenol]]
[1]; compared to non-probucol treated patients
  reduction in lumen loss assessed by IVUS: 0.79 mm^2
[1]; probucol given alone compared to the placebo group only
  reduction in lumen loss assessed by IVUS: 1.06 mm^2
LDL
  protection against LDL oxidation (lag phase for LDL peroxidation): significantly greater protection against LDL oxidation than vitamins alone or the combination of probucol and vitamins
[2]
  reduction of angiographic lumen loss: sixty-eight percent
  reduction of restenosis rate per segment: forty-seven percent
  reduction of the need for repeat angioplasty at 6 month: fifty-eight percent
